Measured values published in US20230391779A1, “BICYCLIC COMPOUNDS, COMPOSITIONS AND USE THEREOF” (Betta Pharmaceuticals Co., Ltd., priority 2020, published 2023).
pEC50: −log10 of the molar value.

System: TEAD-YAP/TAZ interaction
Test: CTGF ELISA assay
Type: cell-based, human
Details: CTGF in culture supernatant of NCI-H2052 cells, 24 hours with compound
Procedure: The detection of CTGF expression level can assessed the binding activity of TEAD-YAP/TAZ transcription factor, and the CTGF expression level was quantified by SimpleStep ELISA® kit (Abcam, ab261851).
NCI-H2052 cells (Purchased from ATCC) were cultured in RPMI 1640 medium, adding 10% FBS and 1% Penicillin-Streptomycin Solution and 1 mM Sodium pyruvate. The day before compounds treatment, the cultured cells were washed with PBS and digested with trypsin, then centrifuged and collected. Discarded the supernatant, the cells were resuspended in fresh complete medium. After cells counted, cells were seeded at 6500 cells/well in 96-well plates. And then cells were cultured overnight in incubator (37° C., 5% CO2).
After the cells were cultured overnight, discarded the culture supernatant, then washed with PBS solution, cells were incubated with 200 μl medium containing compounds in each well. The starting concentration was 10 μM and serial dilution in DMSO and medium were performed to achieve a final DMSO concentration of 0.5% (Final compounds concentration were 10000, 2500, 625, 156, 39.1, 9.77, 2.44, 0.61 nM, 0 nM (0.5% DMSO), The cells were then cultured in incubator (37° C., 5% CO2). Cultured for 24 hours, the cells were centrifuged at 1500 RPM at 4° C. for 5 minutes, and then 50 μl of culture supernatant were tested for CTGF ELISA assay.
The Human CTGF SimpleStep ELISA® Kit (Abcam, ab261851) employs an affinity tag labeled capture antibody and a reporter conjugated detector antibody which immunocapture the sample analyte in solution. This entire complex (capture antibody/analyte/detector antibody) is in turn immobilized via immunoaffinity of an anti-tag antibody coating the well. To perform the assay, samples or standards are added to the wells, followed by the antibody mix (capture antibody/detector antibody). After incubation, the wells are washed to remove unbound material. TMB Development Solution is added and during incubation is catalyzed by HRP, generating blue coloration. This reaction is then stopped by addition of Stop Solution completing any color change from blue to yellow. Signal is generated proportionally to the amount of bound analyte and the intensity is measured at 450 nm. Firstly, prepare all reagents, samples, and standards as instructed. Add 50 μl standard or sample to appropriate wells. Then add 50 μl of the Antibody Cocktail to each well. Seal the plate and incubate for 1 hour at room temperature on a plate shaker. Wash each well with Wash Buffer three times. Add 100 μl of TMB Development Solution to each well and incubate for 10 minutes in the dark on a plate shaker. Add 100 μl of Stop Solution to each well. Shake plate on a plate shaker for 1 minute to mix. Record the OD at 450 nm. Determine the concentration of the target protein in the sample by the standard curve.
EC50 value was determined by fitting the concentration response curves using GraphPad Prism software. The compounds of the present invention were tested for their capacity to inhibit TEAD-YAP/TAZ interaction according to the fitted curves of CTGF concentration response to compounds.

| pEC50 | SMILES |
| --- | --- |
| 8.05 | C=C(F)C(=O)N1CC(n2nc(-c3ccc(C(F)(F)F)cc3)c3nccnc32)C1 [Compound 160, 2-fluoro-1-(3-(3-(4-(trifluoro-methyl)phenyl)-1H-pyrazolo[3,4-b]pyrazin-1-yl)azetidin-1-yl)prop-2-en-1-one] |
| 8.52 | C=CC(=O)N1CC(n2nc(-c3ccc(C(F)(F)F)cc3)c3nccnc32)C1 [Compound 161, 1-(3-(3-(4-(trifluoromethyl)phen-yl)-1H-pyrazolo[3,4-b]pyrazin-1-yl)azetidin-1-yl)prop-2-en-1-one] |
| 7.40 | C=C(F)C(=O)N1CC(n2nc(-c3ccc(C(F)(F)F)cc3)c3ccc[n+]([O-])c32)C1 [Compound 165, 1-(1-(2-fluoroacryloyl)azetidin-3-yl)-3-(4-(trifluoromethyl)phenyl)-1H-pyrazolo[3,4-b]pyridine 7-oxide] |
| 6.83 | C=C(F)C(=O)N1CC(n2nc(-c3ccc(C(C)C)cc3)c3cccnc32)C1 [Compound 171, 2-fluoro-1-(3-(3-(4-isopropyl-phenyl)-1H-pyrazolo[3,4-b]-pyridin-1-yl)azetidin-1-yl)prop-2-en-1-one] |
| 7.47 | C=C(F)C(=O)N1CC(n2nc(-c3ccc(C#N)c(C(F)(F)F)c3)c3cccnc32)C1 [Compound 178, 4-(1-(1-(2-fluoroacryloyl)azetidin-3-yl)-1H-pyrazolo[3,4-b]pyridin-3-yl)-2-(trifluoromethyl)benzo-nitrile] |
| 8.11 | C=C(F)C(=O)N1CC(n2nc(-c3cnc(C(F)(F)F)c(F)c3)c3cccnc32)C1 [Compound 184, 2-fluoro-1-(3-(3-(5-fluoro-6-(trifluoromethyl)pyridin-3-yl)-1H-pyrazolo[3,4-b]pyridin-1-yl)-azetidin-1-yl)prop-2-en-1-one] |
| 8.70 | C=C(F)C(=O)N1CC(n2nc(-c3ccc(C(F)(F)F)cc3)c3ccc(C)nc32)C1 [Compound 186, 2-fluoro-1-(3-(6-methyl-3-(4-(trifluoromethyl)phenyl)-1H-pyrazolo[3,4-b]pyridin-1-yl)-azetidin-1-yl)prop-2-en-1-one] |
| 8.70 | C=C(F)C(=O)N1CC(n2nc(-c3ccc(C(F)(F)F)cc3)c3ccc(Cl)nc32)C1 [Compound 187, 1-(3-(6-chloro-3-(4-(trifluoro-methyl)phenyl)-1H-pyrazolo[3,4-b]pyridin-1-yl)azetidin-1-yl)-2-fluoroprop-2-en-1-one] |
| 10.22 | C=C(F)C(=O)Nc1cc(-n2nc(-c3ccc(C(F)(F)F)cc3)c3cccnc32)ccc1OC [Compound 188, 2-fluoro-N-(2-methoxy-5-(3-(4-(trifluoromethyl)phenyl)-1H-pyrazolo[3,4-b]pyridin-1-yl)-phenyl)acrylamide] |
| 7.62 | C=CC(=O)Nc1cc(-n2nc(-c3ccc(C(F)(F)F)cc3)c3cccnc32)ccc1Cl [Compound 189, N-(2-chloro-5-(3-(4-(trifluoro-methyl)phenyl)-1H-pyrazolo[3,4-b]pyridin-1-yl)phenyl)acrylamide] |
| 8.05 | C=C(F)C(=O)N1CC(n2nc(-c3ccc(C(F)(F)F)cc3)c3ccccc32)C1 [Compound 196, 2-fluoro-1-(3-(3-(4-(trifluoro-methyl)phenyl)-1H-indazol-1-yl)azetidin-1-yl)prop-2-en-1-one] |
| 7.90 | C=C(F)C(=O)N1CC(n2nc(-c3ccc(C(F)(F)F)nc3)c3ccccc32)C1 [Compound 197, 2-fluoro-1-(3-(3-(6-(trifluoro-methyl)pyridin-3-yl)-1H-indazol-1-yl)azetidin-1-yl)prop-2-en-1-one] |
| 9.05 | C=C(F)C(=O)N1CC(n2nc(-c3ccc(C(F)(F)F)nc3)c3nccnc32)C1 [Compound 198, 2-fluoro-1-(3-(3-(6-(trifluoro-methyl)pyridin-3-yl)-1H-pyrazolo[3,4-b]pyrazin-1-yl)-azetidin-1-yl)prop-2-en-1-one] |
| 7.70 | C=C(F)C(=O)N1CC(n2nc(-c3ccc(C(F)(F)F)nc3)c3ccc(C)nc32)C1 [Compound 199, 2-fluoro-1-(3-(6-methyl-3-(6-(trifluoromethyl)pyridin-3-yl)-1H-pyrazolo[3,4-b]pyridin-1-yl)-azetidin-1-yl)prop-2-en-1-one] |
| 8.09 | C=C(F)C(=O)N1CC(n2nc(-c3ccc(C(F)(F)F)cc3)c3cc(F)cnc32)C1 [Compound 202, 2-fluoro-1-(3-(5-fluoro-3-(4-(trifluoromethyl)phenyl)-1H-pyrazolo[3,4-b]pyridin-1-yl)-azetidin-1-yl)prop-2-en-1-one] |
| 8.39 | C=C(F)C(=O)N1CC(n2nc(-c3ccc(C(F)(F)F)cc3)c3c2CCOC3)C1 [Compound 208, 2-fluoro-1-(3-(3-(4-(trifluoro-methyl)phenyl)-6,7-dihydro-pyrano-[4,3-c]pyrazol-1(4H)-yl)-azetidin-1-yl)prop-2-en-1-one] |
| 7.60 | C=C(F)C(=O)N1CC(n2nc3c(c2-c2ccc(C(F)(F)F)cc2)COCC3)C1 [Compound 209, 2-fluoro-1-(3-(3-(4-(trifluoro-methyl)phenyl)-6,7-dihydro-pyrano[4,3-c]pyrazol-2(4H)-yl)azetidin-1-yl)prop-2-en-1-one] |
| 8.24 | C=C(F)C(=O)N1CC(n2nc(-c3ccc(C(F)(F)F)cc3)c3c2CCCC3)C1 [Compound 217, 2-fluoro-1-(3-(3-(4-(trifluoro-methyl)phenyl)-4,5,6,7-tetra-hydro-1H-indazol-1-yl)azetidin-1-yl)prop-2-en-1-one] |
| 9.05 | C=C(F)C(=O)N1CC(n2nc(-c3ccc(C(F)(F)F)cc3)c3ccc(OC)nc32)C1 [Compound 221, 2-fluoro-1-(3-(6-methoxy-3-(4-(trifluoromethyl)phenyl)-1H-pyrazolo[3,4-b]pyridin-1-yl)-azetidin-1-yl)prop-2-en-1-one] |
| 9.05 | C=C(F)C(=O)N1CC(n2nc(-c3ccc(C(F)(F)F)cc3)c3ccnc(OC)c32)C1 [Compound 222, 2-fluoro-1-(3-(7-methoxy-3-(4-(trifluoromethyl)phenyl)-1H-pyrazolo[3,4-c]pyridin-1-yl)-azetidin-1-yl)prop-2-en-1-one] |
| 9.22 | C=C(F)C(=O)N1CC(n2nc(-c3ccc(C(F)(F)F)cc3)c3ncc(OC)nc32)C1 [Compound 223, 2-fluoro-1-(3-(6-methoxy-3-(4-(trifluoromethyl)phenyl)-1H-pyrazolo[3,4-b]pyrazin-1-yl)-azetidin-1-yl)prop-2-en-1-one] |
| 8.44 | C=C(F)C(=O)N1CC(n2nc(-c3ccc(C(F)(F)F)cc3)c3nc(C)n(C)c(=O)c32)C1 [Compound 225, 1-(1-(2-fluoroacryloyl)azetidin-3-yl)-5,6-dimethyl-3-(4-(trifluoro-methyl)phenyl)-1,6-dihydro-7H-pyrazolo[4,3-d]pyrimidin-7-one] |
| 8.19 | C=C(F)C(=O)N1CC(n2c(=O)n(-c3ccc(C(F)(F)F)cc3)c3cccnc32)C1 [Compound 230, 3-(1-(2 fluoroacryloyl)azetidin-3 yl)-1-(4-(trifluoromethyl)phenyl)-1,3-dihydro-2H-imidazo[4,5-b]pyridin-2-one] |
| 6.44 | C=CC(=O)N1CC(n2c(=N)n(-c3ccc(C(F)(F)F)cc3)c3ccccc32)C1 [Compound 231, 1-(3-(2-imino-3-(4-(trifluoromethyl)phenyl)-2,3-dihydro-1H-benzo[d]imidazol-1 yl)azetidin-1 yl)prop-2-en-1-one] |
| 8.52 | C=CC(=O)N1CC(n2c(=O)n(-c3ccc(C(F)(F)F)cc3)c3ccccc32)C1 [Compound 236, 1-(1-acryloylazetidin-3-yl)-3-(4-(trifluoromethyl)phenyl)-1,3-dihydro-2H-benzo[d]imidazol-2-one] |
| 7.82 | C=C(F)C(=O)N1CC(n2c(=O)n(-c3ccc(C(F)(F)F)cc3)c3ncccc32)C1 [Compound 239, 1-(1-(2-fluoroacryloyl)azetidin-3-yl)-3-(4-(trifluoromethyl)phenyl)-1,3-dihydro-2H-imidazo[4,5-b]pyridin-2-one] |
| 7.96 | C=C(F)C(=O)N1CC(n2c(=O)n(-c3ccc(C(F)(F)F)cc3)c3cc(C)cnc32)C1 [Compound 244, 3-(1-(2-fluoroacryloyl)azetidin-3-yl)-6-methyl-1-(4-(trifluoromethyl)phenyl)-1,3-dihydro-2H-imidazo[4,5-b]pyridin-2-one] |
